Data from article PMC6943742, “Peptide/Peptoid Hybrid Oligomers: The Influence of Hydrophobicity and Relative Side-Chain Length on Antibacterial Activity and Cell Selectivity” (Molecules, 2019).
In brackets after ≈: the same amount, converted by molar mass. Non-standard residues stand in square brackets, D forms with d. Residues, ends and D or L forms follow the SMILES beside them. N(5-aminopentyl)Gly = NCCCCCNCC(=O)O; Gly(N(CH2)3NH2) = NCCCNCC(=O)O; Nphe = O=C(O)CNCc1ccccc1; Nlys = NCCCCNCC(=O)O

Legend:
[1] = Relative hydrophobicity by RP-HPLC (% MeCN at peak elution); format: physicochemical; settings: RP-HPLC gradient 0 → 60% B during 10 min; % MeCN at peak elution calculated from retention time
Method: The relative hydrophobicity of each peptidomimetic was measured by reverse-phase high-performance liquid chromatography (RP-HPLC). Typically, the RP-HPLC retention time (or percentage acetonitrile at peak elution) constitutes the preferred measure that allows for comparison of relative hydrophobicity, while log P values of polycationic peptides or peptidomimetics normally are considered unsuitable due to the extreme hydrophilic nature of such compounds [11, 45, 57, 58, 59, 60]. […] For both subgroups III (with cationic amino acid residues and the peptoid analogue of Phe, NPhe, i.e., 9–12) and IV (with cationic amino acid residues and the peptoid analogue of hPhe, NhPhe, i.e., 13–16) only minor differences in hydrophobicity were seen. These observations infer that, when the cationic residues are of a peptoid nature, the side-chain length of these has a […] influence on the hydrophobicity. […] Thus, introduction of additional six methylene groups results, as expected, in increased hydrophobicity.
Starting materials and solvents were purchased from commercial suppliers (Iris Biotech, Markredwitz, Germany; Fluorochem, Hadfield, United Kingdom; and Merck, Darmstadt, Germany) and used without further purification. Water used for analytical and preparative high-performance liquid chromatography (HPLC) was filtered through a 0.22-μm Millipore membrane filter. Purity and retention time of each peptidomimetic were determined by analytical UHPLC by using a Phenomenex Luna C18(2) HST column (100 mm × 3 mm; particle size: 2.5 μm; pore size: 100 Å) on a Shimadzu Prominence and Shimadzu Nexera system using an aqueous acetonitrile (MeCN) gradient with 0.1% trifluoroacetic acid (TFA) added (eluent A: 5:95 MeCN–H2O + 0.1% TFA, eluent B: 95:5 MeCN–H2O + 0.1% TFA); a flow rate of 0.5 mL/min was used. For elution of peptidomimetics, a linear gradient of 0% to 60% B during 10 min was used with UV detection at λ = 220 nm. […] For each peptidomimetic, the percentage of MeCN at peak elution was calculated from the retention time by using the following formula:(1) %MeCN = 0.95 (0.6Rt/10 min.) + 0.05 (1−0.6Rt/10 min.).

A. baumannii ATCC 19606 = format: cell-based; settings: ATCC 19606, 20 h
Method: (§1) MIC values were evaluated by using the modified Hancock lab protocol in non-binding polystyrene microtitre plates, with bacterial suspensions of ∼2 × 10^5 CFU/mL in Mueller-Hinton broth (Difco, Sparks MD, USA), with Mg^2+ and Ca^2+ concentrations of 4 mg/L each. The compounds were dissolved in H2O and diluted in 0.01% acetic acid, 0.2% BSA (final concentration). Aliquots of 11 µL of 10 × test compounds were then transferred to the appropriate wells with bacterial suspensions. For preparation and transfer of the solutions of the compounds, low-binding sterile tubes and tips (Axygen, Union City CA, USA) were used. After 20 h incubation of covered plates at 35 °C (±2 °C) with circular shaking at 220 rpm, the MICs were read. The antibacterial activity of peptidomimetics was tested against E. coli ATCC 25922, K. pneumoniae ATCC 13883, P. aeruginosa ATCC 27853, P. aeruginosa PAO1, A. baumannii ATCC 19606, S. aureus ATCC 29213, and E. faecalis ATCC 29212.

E. coli ATCC 25922 = format: cell-based; settings: ATCC 25922, 20 h
Method: as §1

E. faecalis ATCC 29212 = format: cell-based; settings: ATCC 29212, 20 h
Method: as §1

K. pneumoniae ATCC 13883 = format: cell-based; settings: ATCC 13883, 20 h
Method: as §1

P. aeruginosa ATCC 27853 = format: cell-based; settings: ATCC 27853, 20 h
Method: as §1

P. aeruginosa PAO1 = format: cell-based; settings: PAO1, 20 h
Method: as §1

S. aureus ATCC 29213 = format: cell-based; settings: ATCC 29213, 20 h
Method: as §1

in vitro [2] = format: cell-based; settings: human
Method: (§2) Side effects affecting cell viability were estimated on the HepG2 cell line ATCC HB-8065. In brief, HepG2 cells were seeded in flat-bottomed 96-well plates at a concentration of 5000 cells per well. At 80−90% confluency, the cells were incubated for 24 h in a humidified incubator (5% CO2, 37 °C). The medium was removed, and the cells were incubated for 48 h in a humidified incubator (5% CO2, 37 °C) with compounds in two-fold serial dilutions. An MTT assay was then performed as previously described. In brief, after incubation with the test compounds, the culture medium was removed and fresh medium with 0.2 mg/mL MTT was added in each well of the plate. After incubation (3 h, 37 °C, 5% CO2), the medium with MTT was removed, and 200 μL dimethyl sulfoxide were added at once to each sample. Absorbance of MTT was measured using spectrophotometer TECAN Infinite M1000 at 540 nm. The relative viability was calculated by using the formula: ODtreated cells × 100/ODcontrol cells. The IC50 values are calculated by using the program Graph Pad Prism® 5.0. For all compounds, the test range was 10–1280 μg/mL.

[3] = test system: HepG2 cell line ATCC HB-8065; assay: in vitro; format: cell-based; settings: 48 h
Method: as §2

in vitro [4] = format: cell-based; settings: human, Hemolytic Activity (percentage hemolysis)
Method: The lysis of human red blood cells was measured as previously described, with modifications. In brief, freshly drawn human red blood cells (hRBCs) were washed three times with PBS buffer and centrifuged two times for 5 min at 2500 rpm. A two-fold serial dilution of peptidomimetics in PBS buffer was added to each well in a sterile polypropylene V-bottom 96-well plate to the total volume of 75 μL. A 0.5% v/v hRBC suspension (75 μL in PBS buffer) was added to each well to reach a final volume of 150 μL in each well. The plate was incubated (37 °C) for 60 min, and then the cells were subsequently pelleted by centrifugation at 1000 rpm for 5 min. The supernatants (50 μL) were transferred to clear, flat-bottomed plastic 96-well plates. The concentration of hemoglobin was detected by measuring the OD at 405 nm. The OD of cells incubated with 0.1% SDS defined 100% hemolysis, while the OD of cells incubated with PBS buffer defined 0% hemolysis. The concentrations tested were 200, 400, and 800 μg/mL (only average values for the highest concentration are stated in Table 2).

[5] = design: method as in PMID 29198866; settings: peptoid oligomers; cited from earlier work
human red blood cells = settings: cited from earlier work

Molecule | Hydrophobicity (% MeCN at elution) [1] [%] | MIC (A. baumannii ATCC 19606) [µg/mL] | MIC (E. coli ATCC 25922) [µg/mL] | MIC (E. faecalis ATCC 29212) [µg/mL] | MIC (K. pneumoniae ATCC 13883) [µg/mL] | MIC (P. aeruginosa ATCC 27853) [µg/mL] | MIC (P. aeruginosa PAO1) [µg/mL] | MIC (S. aureus ATCC 29213) [µg/mL] | viability at 48 h, 1280 µg/mL (in vitro [2]) [%] | IC50 for inhibiting growth of HepG2 cells [3] [µg/mL] | hemolysis at 60 min, 800 µg/mL (in vitro [4]) [%] | Hydrophobicity (% MeCN at peak elution) [5] [% MeCN] | Concentration resulting in 10% hemolysis (human red blood cells) [µM]
NCCCCCNCC(=O)N[C@@H](Cc1ccccc1)C(=O)N(CCCCCN)CC(=O)N[C@@H](Cc1ccccc1)C(=O)N(CCCCCN)CC(=O)N[C@@H](Cc1ccccc1)C(=O)N(CCCCCN)CC(=O)N[C@@H](Cc1ccccc1)C(=O)N(CCCCCN)CC(=O)N[C@@H](Cc1ccccc1)C(=O)N(CCCCCN)CC(=O)N[C@@H](Cc1ccccc1)C(N)=O [Peptidomimetic 4] (H-[N(5-aminopentyl)Gly]F[N(5-aminopentyl)Gly]F[N(5-aminopentyl)Gly]F[N(5-aminopentyl)Gly]F[N(5-aminopentyl)Gly]F[N(5-aminopentyl)Gly]F-NH2) | 36.6 | 64 (≈ 36.5 µM) | 4 to 8 | >64 | 64 (≈ 36.5 µM) | >64 | >64 | >64 | 49 | 1280 | 9 | – | –
NCCCC[C@H](NC(=O)CN(Cc1ccccc1)C(=O)[C@H](CCCCN)NC(=O)CN(Cc1ccccc1)C(=O)[C@H](CCCCN)NC(=O)CN(Cc1ccccc1)C(=O)[C@H](CCCCN)NC(=O)CN(Cc1ccccc1)C(=O)[C@H](CCCCN)NC(=O)CN(Cc1ccccc1)C(=O)[C@@H](N)CCCCN)C(=O)N(CC(N)=O)Cc1ccccc1 [Peptidomimetic 11] (H-K[Nphe]K[Nphe]K[Nphe]K[Nphe]K[Nphe]K[Nphe]-NH2) | 36.9 | >64 | 4 to 8 | >64 | 64 (≈ 38.3 µM) | 4 (≈ 2.4 µM) | 8 to 16 | >64 | 76 | >1280 | 10 | – | –
H-(NLys-Nspe-Nspe)4-NH2 | – | – | – | – | – | – | – | – | – | – | – | 53.6 | 9.1
NCCCNCC(=O)N[C@@H](Cc1ccccc1)C(=O)N(CCCN)CC(=O)N[C@@H](Cc1ccccc1)C(=O)N(CCCN)CC(=O)N[C@@H](Cc1ccccc1)C(=O)N(CCCN)CC(=O)N[C@@H](Cc1ccccc1)C(=O)N(CCCN)CC(=O)N[C@@H](Cc1ccccc1)C(=O)N(CCCN)CC(=O)N[C@@H](Cc1ccccc1)C(N)=O [Peptidomimetic 2] (H-[Gly(N(CH2)3NH2)]F[Gly(N(CH2)3NH2)]F[Gly(N(CH2)3NH2)]F[Gly(N(CH2)3NH2)]F[Gly(N(CH2)3NH2)]F[Gly(N(CH2)3NH2)]F-NH2) | 35.7 | >64 | 8 to 16 | >64 | 64 (≈ 40.4 µM) | >64 | >64 | >64 | 62 | >1280 | 5 | – | –
NCCCCNCC(=O)N[C@@H](Cc1ccccc1)C(=O)N(CCCCN)CC(=O)N[C@@H](Cc1ccccc1)C(=O)N(CCCCN)CC(=O)N[C@@H](Cc1ccccc1)C(=O)N(CCCCN)CC(=O)N[C@@H](Cc1ccccc1)C(=O)N(CCCCN)CC(=O)N[C@@H](Cc1ccccc1)C(=O)N(CCCCN)CC(=O)N[C@@H](Cc1ccccc1)C(N)=O [Peptidomimetic 3] (H-[Nlys]F[Nlys]F[Nlys]F[Nlys]F[Nlys]F[Nlys]F-NH2) | 35.6 | >64 | 8 to 16 | >64 | 32 (≈ 19.2 µM) | >64 | >64 | >64 | 52 | 1280 | 8 | – | –
